{
  "source": "patent US20260274843A1",
  "about": "“SALT AND SOLID FORMS OF A CDK INHIBITOR” (GENENTECH, INC., priority 2023, published 2026)",
  "format_in_all_cases": "physicochemical",
  "key": {"[1]": {"assay": "Estimated solubility measurement in selected solvents at room temperature", "settings": "thermodynamic from solid", "protocol": "Preliminary solubility of Compound (I) was estimated in 13 selected solvents at room temperature. About 2 mg of Compound (I) was weighed into sample vials and different solvents were added with vortex, 20-200 μL per time, until the drug solution was clear by observation. The volume of solvent was up to 1000 V. Then, the estimated solubility (mg/mL) was calculated."}, "[2]": {"assay": "Solubility testing in bio-relevant media (SGF, FaSSIF, FeSSIF) and water at 37° C.", "settings": "after 0.5 hours", "protocol": "The solubility of maleate Form I, and tosylate Form I were tested in bio-relevant media (SGF, FaSSIF, and FeSSIF) and water at 37° C. up to 24 hours. About 15 mg of the sample was weighed into sample vials and then 3 mL of media was added to make a suspension. All suspensions were shaken at 37° C. with a rate of 200 rpm. At 0.5, 2 and 24 hours, each suspension was filtered and the filtrate was analyzed by HPLC to test the solubility. pH of the filtrate was measured, and the filter cake was analyzed by XRPD."}, "[3]": {"assay": "Dynamic vapor sorption (DVS) moisture sorption/desorption", "settings": "for hygroscopicity: in words", "protocol": "Moisture sorption/desorption data was collected on a DVS Intrinsic PLUS (SMS, UK). The sample was placed into a tared sample chamber and automatically weighed. The sample was dried at 40° C./0% RH until the dm/dt was less than 0.002% and cooled to 25° C. The instrument parameters were set as below. • Sample temperature: 25° C. • Min time per step: 30 min • Max time per step: 120 min • Cycle: Full cycle • Adsorption: 0, 10, 20, 30, 40, 50, 60, 70, 80, 90 • Desorption: 80, 70, 60, 50, 40, 30, 20, 10, 0 • Save data rate: 5 s • Total flow rate: 200 sccm • Post experimental total flow: 200 sscm"}, "[4]": {"assay": "Inter-conversion study by competitive slurry of mixed forms (XRPD)", "settings": "for resulting form after competitive slurry: RT and 50° C. or 60° C.", "protocol": "Inter-conversion study was performed by competitive slurry of mixed different forms in solvents. The concentration of all slurry suspensions was 20 mg/mL.\nEqual amount of Form I, II, III and IV were added into MeOH, IPA, EA, ACN and water to make suspensions, respectively. All suspensions were stirred at RT and 50° C. The filter cakes were checked by XRPD.\nEqual amount of Form I and II were added into the saturated solution of Compound (I). The suspensions were stirred in MeOH, IPA and EA at 60° C. overnight. The filter cakes were checked by XRPD.\nEqual amount of Form II and VII were added into the saturated solution of Compound (I). The suspensions were stirred in IPA and EA at RT and 50° C. The filter cakes were checked by XRPD.\nEqual amount of Form II and VI were slurred in different water activity system (1 mL of EtOH/water) at RT for 3 days. Solid samples were collected by filtration and analyzed by XRPD.\nEqual amount of Form III and VI were slurred in water at RT and 50° C. Solid samples were collected by filtration and analyzed by XRPD."}, "[5]": {"assay": "Solid stability at 40° C./75% RH and 60° C. (HPLC purity, XRPD)", "settings": "open; for Purity (Area %): HPLC", "protocol": "(§1) Form II was prepared, characterized, and used for stability study. Solid stability of Form II was evaluated at RT/92.5% RH, 60° C. and 40° C./75% RH conditions for 10 days, respectively.\nAn amount of Form II was open placed at 60° C. and 40° C./75% RH up to 10 days. At 0, 3 and 10 day, the sample was dissolved in diluent to prepare solution for purity analysis by HPLC. Solid samples were analyzed by XRPD to check the crystal form. […] Form II was physically and chemically stable at 40° C./75% RH and 60° C. for 10 days.\nAppropriate amounts of maleate Form I and tosylate Form I were placed at 60° C. and 40° C./75% RH for up to 24 days. At 0 and 24 day, the sample was dissolved in diluent to prepare solution for purity analysis by HPLC. Solid samples were analyzed by XRPD to check the crystal form."}, "[6]": {"assay": "Mechanical treatment (grinding), XRPD check", "settings": "ground in mortar, checked at 2 min and 5 min", "protocol": "Form II (~15 mg) was ground into a mortar for about 5 minutes, and then checked by XRPD at 2 min and 5 min, respectively."}, "[7]": {"assay": "Physical stability at RT/92.5% RH (XRPD)", "settings": "open, 10 days", "protocol": "as §1\nAppropriate amount of Form II was open put at RT/92.5% RH condition for 10 days. Then, the sample was checked by XRPD."}, "[8]": {"settings": "40° C./75% RH and 60° C., up to 10 days"}},
  "data": [
    {"compound": "CC(C)c1cnn2ccc(-c3ccnc(Nc4ccc(N5CC[C@H](N(C)C)CC5=O)cn4)n3)cc12", "note": "[Compound (I), (S)-4-(dimethylamino)-1-(6-((4-(3-isopropylpyrazolo[1,5-a]pyridin-5-yl)pyrimidin-2-yl)amino)pyridin-3-yl)piperidin-2-one]", "values": [
      {"measurement": "solubility", "setting": "[1]; organic solvent or mixture, DCM", "value": "> 120", "unit": "mg/mL"},
      {"measurement": "solubility", "setting": "[1]; organic solvent or mixture, MeOH, MEK, EtOH and ACN", "value": "1 to 7", "unit": "mg/mL"},
      {"measurement": "solubility", "setting": "[1]; organic solvent or mixture, THF", "value": "~20", "unit": "mg/mL"},
      {"measurement": "solubility", "setting": "[1]; other selected solvents", "value": "< 1", "unit": "mg/mL"}
    ]},
    {"compound": "CC(C)c1cnn2ccc(-c3ccnc(Nc4ccc(N5CC[C@H](N(C)C)CC5=O)cn4)n3)cc12", "note": "[Form I, (S)-4-(dimethylamino)-1-(6-((4-(3-isopropylpyrazolo[1,5-a]pyridin-5-yl)pyrimidin-2-yl)amino)pyridin-3-yl)piperidin-2-one]", "values": [
      {"measurement": "crystal form in water during solubility test", "setting": "[2]", "value": "converted to a metastable hydrate"},
      {"measurement": "hygroscopicity", "setting": "[3]", "value": "non-hygroscopicity"},
      {"measurement": "resulting form after competitive slurry", "setting": "[4]; non-aqueous solvent", "value": "transformed to Form II"}
    ]},
    {"compound": "CC(C)c1cnn2ccc(-c3ccnc(Nc4ccc(N5CC[C@H](N(C)C)CC5=O)cn4)n3)cc12", "note": "[Form II, (S)-4-(dimethylamino)-1-(6-((4-(3-isopropylpyrazolo[1,5-a]pyridin-5-yl)pyrimidin-2-yl)amino)pyridin-3-yl)piperidin-2-one]", "values": [
      {"measurement": "crystal form change (XRPD)", "setting": "[5]; [8]", "value": "no form changed"},
      {"measurement": "degradation (purity by HPLC)", "setting": "[5]; [8]", "value": "No obvious degradation"},
      {"measurement": "Purity (Area %)", "setting": "[5]; 40° C./75% RH, 0 d (initial)", "value": 99.17, "unit": "Area %"},
      {"measurement": "Purity (Area %)", "setting": "[5]; 40° C./75% RH, 3 d", "value": 99.15, "unit": "Area %"},
      {"measurement": "Purity (Area %)", "setting": "[5]; 40° C./75% RH, 10 d", "value": 99.13, "unit": "Area %"},
      {"measurement": "Purity (Area %)", "setting": "[5]; 60° C., 0 d (initial)", "value": 99.17, "unit": "Area %"},
      {"measurement": "Purity (Area %)", "setting": "[5]; 60° C., 3 d", "value": 99.15, "unit": "Area %"},
      {"measurement": "Purity (Area %)", "setting": "[5]; 60° C., 10 d", "value": 99.09, "unit": "Area %"},
      {"measurement": "reversibility of DVS adsorption/desorption plot", "setting": "[3]", "value": "nearly reversible"},
      {"measurement": "water absorbed (DVS)", "setting": "[3]; 0-90% RH, 25° C.", "value": "~ 0.5%"},
      {"measurement": "crystal form after DVS testing", "setting": "[3]; XRPD after DVS", "value": "remained unchanged"},
      {"measurement": "hygroscopicity", "setting": "[3]", "value": "slightly hygroscopic"},
      {"measurement": "crystal form after grinding", "setting": "[6]", "value": "remained unchanged"},
      {"measurement": "crystal form change (XRPD)", "setting": "[7]", "value": "No form change"},
      {"measurement": "resulting form in competitive slurry with Form VI", "setting": "[4]; EtOH/50% water, RT", "value": "transformed to the mixture of Form II and III"},
      {"measurement": "physical stability in competitive slurry with Form VI", "setting": "[4]; EtOH/water with less than 5% of water, RT", "value": "physically stable"},
      {"measurement": "relative stability among anhydrous forms", "setting": "[4]; temperature below 60° C., non-aqueous solvent", "value": "most stable anhydrous form"},
      {"measurement": "resulting form after slurry in water", "setting": "[4]; 50° C.", "value": "mixture of Form II and III"},
      {"measurement": "resulting form after slurry in water", "setting": "[4]; RT", "value": "transform to Form III"}
    ]},
    {"compound": "CC(C)c1cnn2ccc(-c3ccnc(Nc4ccc(N5CC[C@H](N(C)C)CC5=O)cn4)n3)cc12", "note": "[Form III, (S)-4-(dimethylamino)-1-(6-((4-(3-isopropylpyrazolo[1,5-a]pyridin-5-yl)pyrimidin-2-yl)amino)pyridin-3-yl)piperidin-2-one]", "values": [
      {"measurement": "resulting form after competitive slurry", "setting": "[4]; non-aqueous solvent", "value": "transformed to Form II"},
      {"measurement": "resulting form after slurry in water", "setting": "[4]; 50° C.", "value": "to Form VI"}
    ]},
    {"compound": "CC(C)c1cnn2ccc(-c3ccnc(Nc4ccc(N5CC[C@H](N(C)C)CC5=O)cn4)n3)cc12", "note": "[Form IV, (S)-4-(dimethylamino)-1-(6-((4-(3-isopropylpyrazolo[1,5-a]pyridin-5-yl)pyrimidin-2-yl)amino)pyridin-3-yl)piperidin-2-one]", "values": [
      {"measurement": "resulting form after competitive slurry", "setting": "[4]; non-aqueous solvent", "value": "transformed to Form II"}
    ]},
    {"compound": "CC(C)c1cnn2ccc(-c3ccnc(Nc4ccc(N5CC[C@H](N(C)C)CC5=O)cn4)n3)cc12", "note": "[Form VI, (S)-4-(dimethylamino)-1-(6-((4-(3-isopropylpyrazolo[1,5-a]pyridin-5-yl)pyrimidin-2-yl)amino)pyridin-3-yl)piperidin-2-one]", "values": [
      {"measurement": "resulting form after slurry in water", "setting": "[4]; RT", "value": "transformed to Form III"}
    ]}
  ]
}
